Laboratory results reported in article PMC5902632 (2018).
Numbered stars: 1 amine (or outer) side, 2 acyl side, 3 side chain; on linkers, the order of the positions; unused ones are H or OH. Bridge positions count the residues as written; N and C are the ends. Square brackets hold non-standard residues; d marks the D form. Peptide text beside a SMILES is read from it. I, II: the chains in the order shown. Actinocin(9to1) = Cc1c2oc3c(C)ccc(C(=O)[*:1])c3nc-2c(C(=O)[*:2])c(N)c1=O; NMeV = CN[C@H](C(=O)O)C(C)C; Sar = CNCC(=O)O

Experiments:
[1] = system: E12DNA-HG (DNA, duplex) ACGCACGT/ACGTGCGT; test: NMR (2D NOESY and HSQC); settings: 125 mM NaCl; 15 mM sodium phosphate, 0.1 mM EDTA, pH 5.3
[2] = system: E12DNA-WC (DNA, duplex) ACACGTAT/ATACGTGT; test: NMR (2D HSQC chemical shift perturbation); settings: 125 mM NaCl; 15 mM sodium phosphate, 0.1 mM EDTA, pH 5.3 or 6.8; room temperature
[3] = system: E12DNA (DNA, duplex) ACACGTACGTGT; test: NMR (HSQC chemical shift perturbation, relaxation dispersion); settings: 125 mM NaCl; 15 mM sodium phosphate, 0.1 mM EDTA, pH 5.3 or 6.8, 8% D2O; slow exchange
[4] = system: AcDNA (DNA, duplex) AGATATGCATATCT; test: NMR (HSQC, NOESY, relaxation dispersion); settings: 125 mM NaCl; 15 mM sodium phosphate, 0.1 mM EDTA, pH 5.3 or 6.8, 8% D2O; two orientations of the chromophore

Row | binding [2] | binding [3] | Compound | binding [1] | binding [4]
1 | yes | yes | CSC1SC[C@H]2C(=O)N(C)[C@@H](C(C)C)C(=O)OC[C@@H](NC(=O)c3cnc4ccccc4n3)C(=O)N[C@@H](C)C(=O)N(C)[C@@H]1C(=O)N(C)[C@@H](C(C)C)C(=O)OC[C@@H](NC(=O)c1cnc3ccccc3n1)C(=O)N[C@@H](C)C(=O)N2C (stereo partly shown) | yes | 
2 |  |  | Cc1c2oc3c(C)ccc(C(=O)N[C@@H]4C(=O)N[C@H](C(C)C)C(=O)N5CCC[C@H]5C(=O)N(C)CC(=O)N(C)[C@@H](C(C)C)C(=O)O[C@@H]4C)c3nc-2c(C(=O)N[C@@H]2C(=O)N[C@H](C(C)C)C(=O)N3CCC[C@H]3C(=O)N(C)CC(=O)N(C)[C@@H](C(C)C)C(=O)O[C@@H]2C)c(N)c1=O (I: T[dV]P[Sar][NMeV] / II: T[dV]P[Sar][NMeV]; ester I:1-I:C, II:1-II:C; linker I:N-II:N via Actinocin(9to1)) |  | yes
